In the NIST ThermoML archive (doi:10.1021/je201009c):
± gives the expanded uncertainty stated by the source.

Columns and labels:
[1] = refractive index (Na D-line) (dimensionless); xn = mol fraction of the nth substance listed; settings: Liquid, Standard Abbe refractometry
[2] = xn = mol fraction of the nth substance listed; settings: for surface tension liquid-gas: Capillary rise; for viscosity / mass density: Liquid; for viscosity: Falling or rolling sphere viscometry; for mass density: Vibrating tube method
[3] = for surface tension liquid-gas: Capillary rise; for viscosity / mass density: Liquid; for viscosity: Falling or rolling sphere viscometry; for mass density: Vibrating tube method
[4] = refractive index (Na D-line) (dimensionless); settings: 101.33 kPa, Liquid, Standard Abbe refractometry

Row | SMILES | refractive index ([1]; 293.15 K, 100.8 kPa, x1 = 1) | refractive index ([1]; 303.15 K, 100.8 kPa, x1 = 1) | refractive index ([1]; 313.15 K, 100.8 kPa, x1 = 1) | refractive index ([1]; 323.15 K, 100.8 kPa, x1 = 1) | surface tension liquid-gas ([3]; 293.15 K) | viscosity ([3]; 293.15 K, 100.8 kPa) | mass density ([3]; 293.15 K, 100.8 kPa) | surface tension liquid-gas ([3]; 303.15 K) | viscosity ([3]; 303.15 K, 100.8 kPa) | mass density ([3]; 303.15 K, 100.8 kPa) | surface tension liquid-gas ([3]; 313.15 K) | viscosity ([3]; 313.15 K, 100.8 kPa) | mass density ([3]; 313.15 K, 100.8 kPa) | surface tension liquid-gas ([3]; 323.15 K) | viscosity ([3]; 323.15 K, 100.8 kPa) | mass density ([3]; 323.15 K, 100.8 kPa) | refractive index ([4]; 293.15 K) | refractive index ([4]; 303.15 K) | refractive index ([4]; 313.15 K) | refractive index ([4]; 323.15 K) | further results
1 | CCO [ethanol] + CC(=O)OCc1ccccc1 | 1.36137 ± 0.001 | 1.35712 ± 0.001 | 1.35292 ± 0.001 | 1.34873 ± 0.001 | – | – | – | – | – | – | – | – | – | – | – | – | – | – | – | – | surface tension liquid-gas ([2]; 293.15 K, x1 = 1): 22.3 ± 0.4 mN/m; viscosity ([2]; 293.15 K, 100.8 kPa, x1 = 1): 1.183 ± 0.018 mPa·s; mass density ([2]; 293.15 K, 100.8 kPa, x1 = 1): 789.1 ± 0.19 kg/m3; surface tension liquid-gas ([2]; 303.15 K, x1 = 1): 21.4 ± 0.4 mN/m; viscosity ([2]; 303.15 K, 100.8 kPa, x1 = 1): 0.98 ± 0.018 mPa·s; mass density ([2]; 303.15 K, 100.8 kPa, x1 = 1): 780.76 ± 0.2 kg/m3; surface tension liquid-gas ([2]; 313.15 K, x1 = 1): 20.6 ± 0.4 mN/m; viscosity ([2]; 313.15 K, 100.8 kPa, x1 = 1): 0.822 ± 0.017 mPa·s; mass density ([2]; 313.15 K, 100.8 kPa, x1 = 1): 771.99 ± 0.2 kg/m3; surface tension liquid-gas ([2]; 323.15 K, x1 = 1): 19.4 ± 0.4 mN/m; viscosity ([2]; 323.15 K, 100.8 kPa, x1 = 1): 0.698 ± 0.017 mPa·s; mass density ([2]; 323.15 K, 100.8 kPa, x1 = 1): 763.03 ± 0.2 kg/m3
2 | OCc1ccccc1 [benzenemethanol] | – | – | – | – | 39.2 ± 0.4 mN/m | 6.287 ± 0.054 mPa·s | 1045.44 ± 0.19 kg/m3 | 38.1 ± 0.4 mN/m | 4.579 ± 0.041 mPa·s | 1037.45 ± 0.18 kg/m3 | 37.2 ± 0.4 mN/m | 3.335 ± 0.031 mPa·s | 1029.61 ± 0.18 kg/m3 | 36.3 ± 0.4 mN/m | 2.545 ± 0.026 mPa·s | 1021.5 ± 0.18 kg/m3 | 1.54049 ± 0.001 | 1.53635 ± 0.001 | 1.53215 ± 0.001 | 1.52796 ± 0.001 | viscosity ([3]; 293.15 K, 101 kPa): 6.287 ± 0.054 mPa·s; mass density ([3]; 293.15 K, 101 kPa): 1045.44 ± 0.19 kg/m3; viscosity ([3]; 303.15 K, 101 kPa): 4.579 ± 0.041 mPa·s; mass density ([3]; 303.15 K, 101 kPa): 1037.45 ± 0.18 kg/m3; viscosity ([3]; 313.15 K, 101 kPa): 3.335 ± 0.031 mPa·s; mass density ([3]; 313.15 K, 101 kPa): 1029.61 ± 0.18 kg/m3; viscosity ([3]; 323.15 K, 101 kPa): 2.545 ± 0.026 mPa·s; mass density ([3]; 323.15 K, 101 kPa): 1021.5 ± 0.18 kg/m3
3 | CC(=O)OCc1ccccc1 [benzyl ethanoate] | – | – | – | – | 37.3 ± 0.5 mN/m | 2.324 ± 0.026 mPa·s | 1055.81 ± 0.3 kg/m3 | 35.6 ± 0.4 mN/m | 1.836 ± 0.023 mPa·s | 1046.74 ± 0.29 kg/m3 | 34.3 ± 0.4 mN/m | 1.474 ± 0.021 mPa·s | 1037.42 ± 0.29 kg/m3 | 33.2 ± 0.4 mN/m | 1.256 ± 0.02 mPa·s | 1027.51 ± 0.28 kg/m3 | 1.50245 ± 0.0011 | 1.49776 ± 0.0011 | 1.49309 ± 0.0011 | 1.48834 ± 0.0011 | viscosity ([3]; 293.15 K, 101 kPa): 2.324 ± 0.026 mPa·s; mass density ([3]; 293.15 K, 101 kPa): 1055.81 ± 0.3 kg/m3; viscosity ([3]; 303.15 K, 101 kPa): 1.836 ± 0.023 mPa·s; mass density ([3]; 303.15 K, 101 kPa): 1046.74 ± 0.29 kg/m3; viscosity ([3]; 313.15 K, 101 kPa): 1.474 ± 0.021 mPa·s; mass density ([3]; 313.15 K, 101 kPa): 1037.42 ± 0.29 kg/m3; viscosity ([3]; 323.15 K, 101 kPa): 1.256 ± 0.02 mPa·s; mass density ([3]; 323.15 K, 101 kPa): 1027.51 ± 0.28 kg/m3
4 | OCc1ccccc1 [benzenemethanol] + CC(=O)OCc1ccccc1 | – | – | – | – | – | – | – | – | – | – | – | – | – | – | – | – | – | – | – | – | refractive index ([1]; 293.15 K, 101 kPa, x2 = 0): 1.54049 ± 0.00033; refractive index ([1]; 303.15 K, 101 kPa, x2 = 0): 1.53635 ± 0.00033; refractive index ([1]; 313.15 K, 101 kPa, x2 = 0): 1.53215 ± 0.00033; refractive index ([1]; 323.15 K, 101 kPa, x2 = 0): 1.52796 ± 0.00033; surface tension liquid-gas ([2]; 293.15 K, x2 = 0): 39.2 ± 0.4 mN/m; viscosity ([2]; 293.15 K, 101 kPa, x2 = 0): 6.287 ± 0.054 mPa·s; mass density ([2]; 293.15 K, 101 kPa, x2 = 0): 1045.44 ± 0.19 kg/m3; surface tension liquid-gas ([2]; 303.15 K, x2 = 0): 38.1 ± 0.4 mN/m; viscosity ([2]; 303.15 K, 101 kPa, x2 = 0): 4.579 ± 0.041 mPa·s; mass density ([2]; 303.15 K, 101 kPa, x2 = 0): 1037.45 ± 0.18 kg/m3; surface tension liquid-gas ([2]; 313.15 K, x2 = 0): 37.2 ± 0.4 mN/m; viscosity ([2]; 313.15 K, 101 kPa, x2 = 0): 3.335 ± 0.031 mPa·s; mass density ([2]; 313.15 K, 101 kPa, x2 = 0): 1029.61 ± 0.18 kg/m3; surface tension liquid-gas ([2]; 323.15 K, x2 = 0): 36.3 ± 0.4 mN/m; viscosity ([2]; 323.15 K, 101 kPa, x2 = 0): 2.545 ± 0.026 mPa·s; mass density ([2]; 323.15 K, 101 kPa, x2 = 0): 1021.5 ± 0.18 kg/m3
5 | CCO [ethanol] + OCc1ccccc1 | 1.36137 ± 0.001 | 1.35712 ± 0.001 | 1.35292 ± 0.001 | 1.34873 ± 0.001 | – | – | – | – | – | – | – | – | – | – | – | – | – | – | – | – | surface tension liquid-gas ([2]; 293.15 K, x1 = 1): 22.3 ± 0.4 mN/m; viscosity ([2]; 293.15 K, 100.8 kPa, x1 = 1): 1.183 ± 0.018 mPa·s; mass density ([2]; 293.15 K, 100.8 kPa, x1 = 1): 789.1 ± 0.2 kg/m3; surface tension liquid-gas ([2]; 303.15 K, x1 = 1): 21.4 ± 0.4 mN/m; viscosity ([2]; 303.15 K, 100.8 kPa, x1 = 1): 0.98 ± 0.018 mPa·s; mass density ([2]; 303.15 K, 100.8 kPa, x1 = 1): 780.76 ± 0.2 kg/m3; surface tension liquid-gas ([2]; 313.15 K, x1 = 1): 20.6 ± 0.4 mN/m; viscosity ([2]; 313.15 K, 100.8 kPa, x1 = 1): 0.822 ± 0.017 mPa·s; mass density ([2]; 313.15 K, 100.8 kPa, x1 = 1): 771.99 ± 0.2 kg/m3; surface tension liquid-gas ([2]; 323.15 K, x1 = 1): 19.4 ± 0.4 mN/m; viscosity ([2]; 323.15 K, 100.8 kPa, x1 = 1): 0.698 ± 0.017 mPa·s; mass density ([2]; 323.15 K, 100.8 kPa, x1 = 1): 763.03 ± 0.2 kg/m3
6 | CCO [ethanol] | – | – | – | – | 22.3 ± 0.4 mN/m | 1.183 ± 0.018 mPa·s | 789.1 ± 0.19 kg/m3 | 21.4 ± 0.4 mN/m | 0.98 ± 0.018 mPa·s | 780.76 ± 0.2 kg/m3 | 20.6 ± 0.4 mN/m | 0.822 ± 0.017 mPa·s | 771.99 ± 0.2 kg/m3 | 19.4 ± 0.4 mN/m | 0.698 ± 0.017 mPa·s | 763.03 ± 0.2 kg/m3 | 1.36137 ± 0.001 | 1.35712 ± 0.001 | 1.35292 ± 0.001 | 1.34873 ± 0.001 | –
